Measurements from US10617695B2, “Ophthalmic compositions containing alcaftadine” (Vistakon Pharmaceuticals, LLC, priority 2006, dated 2020).
“Also recorded” adds a separate entry of the source. Marks after values point to notes of the source that are not given here.

How the values were obtained:
[1] = tested on: murine model of allergic conjunctivitis; test: Vascular leak (Evans Blue Dye Extravasation) in murine model of allergic conjunctivitis, early phase; format: in vivo, mice; conditions: alcaftadine 2.5 mg/ml, 5 μL topical at 1 and 2 hours pre-challenge; p<0.05
Procedure: (§1) Alcaftadine ophthalmic solution was evaluated to determine if topical treatment could reduce early phase and late phase allergic inflammation in a murine model of allergic conjunctivitis. Evans Blue Dye Leakage was used to assess the impact on vascular permeability during the early phase inflammatory response Conjunctiva was taken at 24 hours, stained, and assessed for presence of neutrophil and eosinophil infiltration to evaluate late phase anti-inflammatory activity.
(§2) All mice were sensitized with short ragweed (SRW) in aluminum hydroxide via intraperitoneal administration (Day 0, 7, and 14) and eye drop instillation (Day 8 and 15). On Day 20, mice were again sensitized with eye drops of SRW.
(§3) On Day 27, two topical administrations of the clinical dose of alcaftadine 2.5 mg/ml or vehicle were instilled at 1 and 2 hours pre-challenge. Alcaftadine and vehicle were administered topically at a 5 μL saturating dose as treatment arms based on a randomization code. […]
(§4) Vascular leak was determined by means of Evans Blue Dye Extravasation following allergen challenge for N=6 animals except the alcaftadine treatment arm, where N=4 animals were sacrificed and tested (two animals died during the procedure). […] The numbers of eosinophils and neutrophils were determined both by light microscopy of Giemsa or H&E stained sections or by immunohistochemistry using cell specific monoclonal antibodies. […]

[2] = Chemical stability of alcaftadine solution in non-sterilized or gamma irradiated LDPE bottles and glass vials (HPLC); format: physicochemical
Excerpt: The existence of the N-oxide structures as the primary oxidative degradation peak was confirmed as having the same HPLC relative retention time as a synthetically produced N-oxide structures and also confirmed using mass spectroscopy.
To investigate the effects of the gamma irradiation process used to sterilize the LDPE bottles, the chemical stability of alcaftadine was studied using different lots of bottles, either gamma irradiated or non-sterilized.
The following materials were used in this study.
2.5 mg/ml alfactadine solution
Non-sterilized 5 ml LDPE bottles (DUPONT 20-6064) from Bunder Glas GmbH (Germany)
Non-sterilized 5 ml LDPE bottles (DUPONT 20-6064) from Rexam (France)
Sterilized (gamma irradiated at 25 kGy) LDPE bottles (DUPONT 20-6064) from Bunder Glas GmbH
Scintillation vials—20 ml clear glass with Teflon coated cap Millex GV syringe filter unit
Chemical stability results for alcaftadine solution stored in either non-sterilized bottles (Rexam or Bunder Glas) or gamma-irradiated bottles (Bunder Glas) are summarized in Table 2. All samples were assayed by HPLC after 6 and 14 days of storage at 50° C. Light exposure was not controlled during storage. The solution was stored in either Rexam bottles (without sterilization), Bunder Glas bottles (sterilized with y Irradiation or without sterilization) and in glass vials.

[3] = tested on: RBL-CCR1 (Rat Basophil Leukemia-Chemokine Receptor-1) cell line; test: Mast cell degranulation / cell stabilization in RBL-CCR1 cells; format: cell-based
Procedure: The cell stabilization potential of alcaftadine was evaluated using the RBL-CCR1 (Rat Basophil Leukemia-Chemokine Receptor-1) cell line as a way of investigating its ability to effect mast cell stabilization. The use of basophil cell lines to assess anti-allergic drugs for cell stabilization potential is well established. Physiologically, basophils are similar to mast cells, containing pre-formed inflammatory mediators that are released through a similar degranulation process involving IgE cross-linking. Because these cell lines are readily available, they present efficiencies over conducting stabilization assays in mast cell lines.
Cultured RBL-CCR1 cells were sensitized to anti-DNP IgE. Following sensitization, cells were treated with various concentrations of alcaftadine or its major active metabolite (0.083%, 0.0083% and 0.00083%) or ophthalmic vehicle (placebo), and stimulated with DNP and/or MIP-1a (Macrophage Inflammatory Protein-1 alpha, a degranulation enhancer) to induce degranulation. A 10× and 100× placebo control solution (ophthalmic vehicle solution) in D-DEM (Dulbecco's modified Eagle's medium) was also employed.
However, co-stimulation induced a robust degranulation response.

[4] = Systemic (plasma) levels of alcaftadine in patients; format: in vivo, human; conditions: for Mean Cmax: plasma, 0.25% ophthalmic solution bilaterally
Procedure: Patients were bilaterally dosed with 0.25% ophthalmic solutions of alcaftadine for seven days. The plasma levels of those patients was assessed pre-dose, and 0.25, 0.5, 1, 1.5, 2, 3, 4, 6, 8, 12, and 18 hour post medication instillation on days one and seven. Plasma concentrations of Alcaftadine reached Cmax rapidly and declined to below the lower limit of quantification (0.01 ng/mL) by 3 hours post dosing.

[5] = tested on: murine model of allergic conjunctivitis; test: Eosinophil and neutrophil recruitment 24 hours post-CAC in murine model of allergic conjunctivitis, late phase; format: in vivo, mice; conditions: alcaftadine 2.5 mg/ml, 5 μL topical at 1 and 2 hours pre-challenge
Procedure: as §1, §2, §3, §4

[6] = target: T1, human histamine H4 receptor (Homo sapiens, UniProt Q9H3N8); test: [3H]histamine competition binding to membranes of SK-N-MC cells transfected with human H4 receptor
T1 construct: express a reporter gene construct and the human H4 receptor full-coding region; expressed in transfected cells; host or cells: SK-N-MC cells with a CRE-beta-galactosidase reporter
T1 sequence (Q9H3N8 whole entry): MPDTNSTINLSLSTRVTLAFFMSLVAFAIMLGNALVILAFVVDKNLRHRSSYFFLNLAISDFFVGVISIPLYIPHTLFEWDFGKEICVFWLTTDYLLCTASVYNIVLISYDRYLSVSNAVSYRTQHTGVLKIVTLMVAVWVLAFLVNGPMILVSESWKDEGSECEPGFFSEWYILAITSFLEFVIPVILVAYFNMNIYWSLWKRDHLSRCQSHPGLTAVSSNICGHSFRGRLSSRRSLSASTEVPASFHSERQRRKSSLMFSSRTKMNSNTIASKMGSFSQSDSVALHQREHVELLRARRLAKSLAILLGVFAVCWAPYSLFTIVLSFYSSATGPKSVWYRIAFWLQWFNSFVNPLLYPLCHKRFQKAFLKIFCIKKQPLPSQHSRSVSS

[7] = Bunder Glas bottles, Y Irradiation (gamma, 25 kGy), 50° C., 6 days
[8] = Bunder Glas bottles, Y Irradiation (gamma, 25 kGy), 50° C., 14 days
[9] = Bunder Glas bottles, no sterilization, 50° C., 6 days
[10] = Bunder Glas bottles, no sterilization, 50° C., 14 days
[11] = Rexam bottles, no sterilization, 50° C., 6 days
[12] = Rexam bottles, no sterilization, 50° C., 14 days

## CN1CCC(=C2c3ccccc3CCn3c(C=O)cnc32)CC1 [Alcaftadine, 6,11-dihydro-11-(1-methyl-4-piperidinylidene)-5H-imidazo[2,1-b][3]benzazepine-3-carboxaldehyde]
[1]
  vascular leak compared to vehicle: successfully preventing vascular leakage; also recorded: did significantly inhibit vascular leak
[2]; 50° C.
  N-oxide formation in gamma irradiated Bunder Glas bottles compared with glass vials and non-sterilized Rexam and Bunder Glas bottles: significantly increased levels of N-oxide formation
[2]; [7]
  Alcaftadine: 2.41 mg/mL
  Oxide: 0.199%
[2]; [8]
  Alcaftadine: 2.39 mg/mL
  Oxide: 0.202%
[2]; [9]
  Alcaftadine: 2.48 mg/mL
  Oxide: 0.018%
[2]; [10]
  Alcaftadine: 2.48 mg/mL
  Oxide: 0.042%
[2]; Glass Vials, 50° C., 6 days
  Oxide: 0.024%
[2]; Glass Vials, 50° C., 6 days, sample showed significant evaporation
  Alcaftadine: 2.57* mg/mL
[2]; Initial Solution
  Alcaftadine: 2.47 mg/mL
  Oxide: 0.02%
[2]; [11]
  Alcaftadine: 2.46 mg/mL
  Oxide: 0.015%
[2]; [12]
  Alcaftadine: 2.48 mg/mL
  Oxide: 0.033%
[2]; primary degradation product N-oxide
  susceptibility to oxidation: susceptible to oxidation
[3]
  overall membrane stabilization: effective membrane stabilizing agents
[3]; 10× dose level
  stabilization effect added to that of placebo: enhanced the stabilization effect
[3]; […], DNP-HSA alone, MIP-1a alone, and co-stimulation
  degranulation at the highest concentration: unanticipated and significant degranulation
[3]; co-stimulation assay, concentrations of […] and […], p<0.0001 for both concentrations
  cell stabilization compared to co-stimulation control and negative controls (placebo 10× and placebo 100×): superior at cell stabilization
[4]; all subjects
  maximum plasma concentrations: less than 0.12 ng/mL
[4]; Day 1
  Mean Cmax: 0.051 ng/mL
[4]; Day 7
  Mean Cmax: 0.060 ng/mL
[4]; post dosing, lower limit of quantification 0.01 ng/mL
  time by which plasma concentrations declined to below the lower limit of quantification: ≤ 3 h
[5]
  eosinophil or neutrophil recruitment in the late phase response: did not prevent eosinophil or neutrophil recruitment
[5]; listed as alcaftadine
  eosinophil or neutrophil recruitment in the late phase response: does not appear to inhibit eosinophil or neutrophil recruitment
[6]; average of two runs, 10 nM [3H]histamine, Cheng and Prusoff
  Ki: 2.9 µM
[6]; compared with pA2
  pKi: 5.5
